Measurements as given in patent US9279157B2, “EMX2 in cancer diagnosis and prognosis” (The Regents of the University of California, priority 2009, dated 2016).
Entries after “also recorded” stand apart in the source; their conditions may differ.

Assays:
Type in all cases: cell-based, human
[1] = test system: TE-7 cells; test: DAC treatment negative control, EMX2 expression by semi-quantitative RT-PCR in TE-7; conditions: TE-7 cells that endogenously expressed EMX2
[2] = test system: EMX2 expression in NSCLC cell lines; test: DAC de-methylation treatment of NSCLC cell lines, EMX2 expression by semi-quantitative RT-PCR; conditions: 5 μM DAC, NSCLC / lung cancer cell lines with initially silenced EMX2
Experimental: Reverse transcription-polymerase chain reaction (RT-PCR) was performed in a GeneAmp PCR system 9700 (Applied Biosystems, Foster City, Calif.), using an RT-PCR kit (SuperScript II one-step RT-PCR with Platinum Taq kit; Invitrogen, Carlsbad, Calif.) according to the manufacturer's protocol. Primers for RT-PCR were obtained from Operon Biotechnologies (Huntsville, Ala.). Total RNA of normal human lung was obtained from the Biochain Institute (Hayward, Calif.). Total RNA (500 ng) was used for each reaction. Primer sequences were as follows: human EMX2 DNA, Forward primer; 5′-[…]-3′ (SEQ ID NO: 3), Reverse primer; 5′-[…]-3′ (SEQ ID NO:4).
Human NSCLC cell lines H1299, H322 and A427 were purchased from American Type Culture Collection (ATCC), (Manassas, Va.). These cell lines were cultured in RPMI 1640 supplemented with 10% fetal bovine serum, penicillin (100 IU/mL) and streptomycin (100 μg/mL). All cells were cultured at 37° C. in a humidified incubator with 5% CO2. Total RNA from cell lines was isolated using RNeasy Mini kit (Qiagen). Treatment with 5 μM 5-aza-2′-deoxycytidine (DAC; Sigma) was done according to Clement G. et al., “Epigenetic alteration of the Wnt inhibitory factor-1 promoter occurs early in the carcinogenesis of Barrett's esophagus.” Cancer Sci 99:46-53 (2008).
Cell Culture and 5-Aza-2′-deoxycytidine (DAC) Treatment. […]

[3] = test system: OE33 cells; test: DAC de-methylation treatment, EMX2 expression by semi-quantitative RT-PCR in OE33; conditions: OE33 cells that did not originally express EMX2
[4] = test system: H1299 cells stably transfected with EMX2; test: MTS assay of chemo-synergic effect between EMX2 and cisplatin; conditions: compared with cisplatin or EMX2 alone, cisplatin 0.3 ng/ml (FIG. 23D)
Experimental: The chemo-synergic effect between EMX2 and cisplatin was examined in order to determine whether EMX2 could sensitize NSCLC cells to cisplatin treatment. The H1299 lung cancer cell line was stably transfected with EMX2 The chemo-synergic effect between EMX2 and cisplatin was measured in this cell line by MTS assay (Promega, Madison, Wis.).
Stable EV- or EMX2 transfected cells were plated in 96-well plates at a density of 500 cells per well in 100 μl of culture medium with G418. Medium was changed every three days. Cell viability was evaluated by CELLTITER 96 Aqueous one solution cell proliferation assay (MTS assay) (Promega, Madison, Wis.) on days 1-7. Briefly, 20 μl of reagent was added to each well and incubated in a culture hood for 2 hr. Absorbance at 490 nm was measured with a kinetic microplate reader (Vmax; Molecular Devices, Sunnyvale, Calif.) and was used as a measure of cell number. Experiments were repeated three times.
Proliferation Assays. Stably transfected cells were plated in 96-well plates at a density of 500-1000 cells/well in 100 μl of G418 culture medium. Medium was changed every day. Cell viability was evaluated in triplicate by CellTiter 96 AQueous (Promega) per manufacturer's protocol. […] Colonies were then fixed by 10% formalin, stained with 0.5% crystal violet and counted.

For Nc1ncn([C@H]2C[C@H](O)[C@@H](CO)O2)c(=O)n1 [DAC, 5-aza-2′-deoxycytidine], the “EMX2 expression levels after DAC treatment” value [1] was “not affected”, the “EMX2 expression after DAC treatment” value [2] was “restored EMX2 expression levels” and the “EMX2 expression after DAC treatment” value [3] was “restoration of EMX2 expression”. For the same compound, the “EMX2 expression after DAC treatment” value ([3]; listed as 5-aza-DAC) was “restored”.

For N.N.[Cl][Pt][Cl] [cisplatin], the “Suppression of cell proliferation by cisplatin combined with EMX2” value [4] was “further enhanced; also recorded: more efficiently suppressed; also recorded: significantly enhanced”.
